Experimental data published in publication PMC11406361, “Several orphan solute carriers functionally identified as organic cation transporters: Substrates specificity compared with known cation transporters” (The Journal of Biological Chemistry, 2024).

Molecular target: T1, SLC19A2 (Homo sapiens, UniProt O60779)
T1 construct: expressed in transfected cells
T1 sequence (O60779 1-497): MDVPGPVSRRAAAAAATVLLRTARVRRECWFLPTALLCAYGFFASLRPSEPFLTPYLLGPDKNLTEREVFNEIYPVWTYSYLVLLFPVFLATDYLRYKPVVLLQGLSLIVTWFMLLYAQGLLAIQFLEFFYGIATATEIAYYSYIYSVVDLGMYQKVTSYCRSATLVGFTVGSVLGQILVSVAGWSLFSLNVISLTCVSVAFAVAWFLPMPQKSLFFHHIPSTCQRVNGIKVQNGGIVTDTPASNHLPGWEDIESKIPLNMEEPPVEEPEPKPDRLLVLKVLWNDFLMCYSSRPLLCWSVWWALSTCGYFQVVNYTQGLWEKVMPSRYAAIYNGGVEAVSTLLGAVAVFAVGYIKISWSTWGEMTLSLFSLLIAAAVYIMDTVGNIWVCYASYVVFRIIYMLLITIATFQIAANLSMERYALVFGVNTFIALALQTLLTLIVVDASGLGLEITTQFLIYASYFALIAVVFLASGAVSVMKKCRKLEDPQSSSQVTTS
Experiment: Uptake ratio screen, SLC19A2-overexpressing HEK293 over empty vector cells
Assay type: cell-based
Conditions: 2.5 μM, 2 min
Description: Typically discussed substrates of the proton organic-cation antiporter ([14]) are highlighted in dark green in Figure 1.
In preparation for transport experiments, 24-well plates were pre-coated with poly-D-lysine (Sigma-Aldrich) and 300,000 cells were plated per well and incubated for 48 h. Firstly, the 24-well plate was placed on a heating plate at 37 °C, and the cells were washed with 37 °C HBSS^+ buffer (Hank’s balanced salt solution supplemented with 10 mM Hepes and adjusted to pH 7.4; Thermo Fisher Scientific). The substance-of-interest, which was diluted in 37 °C HBSS^+ to a desired concentration, was added to the cells for exactly 2 min. […] The uptake was stopped with ice-cold HBSS^+, and the 24-well plate was removed from the heating plate. The cells were washed twice with the cold HBSS^+ before they were lysed for 15 min with 80% (v/v) acetonitrile containing the respective internal standard for mass spectrometry. For variations in seeded cell numbers between the cell lines, several wells were lysed in RIPA buffer and used for total protein quantification using a bicinchoninic assay ([74]) and bovine serum albumin as calibration.
The intracellular drug concentrations after transport experiments were analyzed by high-performance liquid chromatography coupled to tandem mass spectrometry analysis. The HPLC consisted of a Shimadzu Nexera HPLC System with a SIL-30AC autosampler, a LC-30AD pump, a CTO-20AC column oven, and a CBM-20A controller (Shimadzu). The reverse-phase chromatography of compounds was accomplished with a Brownlee SPP RP-Amide column with 4.6 × 100 mm inner dimensions, a particle size of 2.7 μm, and a preceding Phenomenex C-18 guard column. […] After separation, the detection of substances was performed with an API 4000 tandem mass spectrometer (AB SCIEX, https://sciex.com/support/software-support/software-downloads), followed by quantification of results with the Analyst software (AB SCIEX, version 1.6.2). […]
Transport-mediated net uptake was determined as fold-increase of transporter-overexpressing cells over empty vector–transfected control cells.

Uptake by SLC19A2 (in words): enhance cell uptake
Compound: C[N+](C)(C)CCO [Choline]
